Data published in patent US4459290A, “C-23-Modified derivatives of OMT, pharmaceutical compositions and method of use” (priority 1982, dated 1984).
Values after ≈ are worked out from the molar mass of the structure shown. Where two headings read alike, the source gives them in different places.

Assays:
[1] = system: Streptococcus pyogenes C203; experiment: MIC, standard agar-dilution assay (Table V); format: cell-based; conditions: Streptococcus pyogenes, C203
Experimental: (§1) The MIC's in Tables V and VI were determined by standard agar-dilution assays. The MIC's in Table VII were obtained using a conventional broth-dilution microtiter test.

[2] = system: Haemophilus influenzae R252; experiment: MIC, standard agar-dilution assay (Table V); format: cell-based; conditions: Haemophilus influenzae, R252
Experimental: as §1

[3] = system: Haemophilus influenzae Holt; experiment: MIC, standard agar-dilution assay (Table V); format: cell-based; conditions: Haemophilus influenzae; H. influenzae Holt, ampicillin-sensitive strain; agar dilution; read-out: MIC
Experimental: as §1

[4] = system: Streptococcus pyogenes C203; experiment: ED50 in mice experimentally infected with S. pyogenes C203 (Table VIII); format: in vivo
Experimental: The C-23 modified derivatives of OMT of this invention have shown in vivo antimicrobial activity against experimental infections. When two doses of test compound were administered to mice experimentally infected with a gram-positive bacterium, S. pyogenes C203, the activity observed was measured as an ED50 value [effective dose in mg/kg to protect 50% of the test animals: see Warren Wick, et al., J. Bacteriol. 81, 233-235 (1961)].

[5] = system: Citrobacter freundii CF17; experiment: MIC, standard agar-dilution assay (Table VI); format: cell-based; conditions: CF17
Experimental: (§2) Especially noteworthy is the improved activity against gram-negative bacteria for several derivatives when compared to the activity of OMT. […] The MIC's in Tables V and VI were determined by standard agar-dilution assays. The MIC's in Table VII were obtained using a conventional broth-dilution microtiter test.

[6] = system: Pseudomonas aeruginosa X528; experiment: MIC, standard agar-dilution assay (Table VI); format: cell-based; conditions: P. aeruginosa X528, agar dilution, read-out: MIC
Experimental: as §2

Proteus morganii PR15 = experiment: MIC, standard agar-dilution assay (Table VI); format: cell-based; conditions: Morganella morganii, PR15
Experimental: as §2

[7] = system: Enterobacter aerogenes C32; experiment: MIC, standard agar-dilution assay (Table VI); format: cell-based; conditions: Klebsiella aerogenes, C32
Experimental: as §2

[8] = system: Salmonella heidelberg X514; experiment: MIC, standard agar-dilution assay (Table VI); format: cell-based; conditions: Salmonella enterica, X514
Experimental: as §2

Serratia marcescens X99 = experiment: MIC, standard agar-dilution assay (Table VI); format: cell-based; conditions: X99
Experimental: as §2

[9] = system: Pseudomonas aeruginosa Ps18; experiment: MIC, standard agar-dilution assay (Table VI); format: cell-based; conditions: PS18
Experimental: as §2

Serratia marcescens SE3 = experiment: MIC, standard agar-dilution assay (Table VI); format: cell-based; conditions: SE3
Experimental: as §2

Enterobacter cloacae EB5 = experiment: MIC, standard agar-dilution assay (Table VI); format: cell-based; conditions: EB5
Experimental: as §2

Salmonella typhi 1335 = experiment: MIC, standard agar-dilution assay (Table VI); format: cell-based; conditions: Salmonella enterica
Experimental: as §2

Proteus inconstans PR33 = experiment: MIC, standard agar-dilution assay (Table VI); format: cell-based; conditions: Providencia alcalifaciens, PR33
Experimental: as §2

[10] = system: Enterobacter aerogenes EB17; experiment: MIC, standard agar-dilution assay (Table VI); format: cell-based; conditions: Klebsiella aerogenes, EB17
Experimental: as §2

Proteus rettgeri C24 = experiment: MIC, standard agar-dilution assay (Table VI); format: cell-based; conditions: Providencia rettgeri, P. rettgeri C24
Experimental: as §2

[11] = system: Pseudomonas aeruginosa X239; experiment: MIC, standard agar-dilution assay (Table VI); format: cell-based; conditions: X239
Experimental: as §2

[12] = system: Klebsiella pneumoniae X68; experiment: MIC, standard agar-dilution assay (Table VI); format: cell-based; conditions: X68
Experimental: as §2

Proteus rettgeri PR7 = experiment: MIC, standard agar-dilution assay (Table VI); format: cell-based; conditions: Providencia rettgeri, PR7
Experimental: as §2

Mycoplasma synoviae = experiment: MIC, broth-dilution microtiter test (Table VII); format: cell-based; conditions: Mycoplasmopsis synoviae; M. synoviae; broth-dilution microtiter; read-out: MIC
Experimental: as §2

[13] = system: Pasteurella multocida 17E; experiment: MIC, broth-dilution microtiter test (Table VII); format: cell-based; conditions: Pasteurella multocida; P. multocida 17E, bovine isolate; broth-dilution microtiter; read-out: MIC
Method in brief: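 Broth microdilution, run as a conventional microtiter test, supplied MICs for the gram-positive S. aureus and the Pasteurella isolates. Enterobacter data instead rest on a standard agar-dilution procedure.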

[14] = system: Streptococcus pneumoniae Park I; experiment: microbe, parasite or virus in culture; format: cell-based; conditions: Streptococcus pneumoniae; read-out: MIC
Experimental: as §2

[15] = system: Staphylococcus aureus V41; experiment: MIC, standard agar-dilution assay (Table V); format: cell-based; conditions: Staphylococcus aureus, V41
Experimental: as §2

Escherichia coli EC14 = experiment: MIC, standard agar-dilution assay (Table V); format: cell-based; conditions: Escherichia coli; E. coli EC14; agar dilution; read-out: MIC
Method in brief: (§3)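 Growth inhibition in liquid medium, in a routine microtiter broth-dilution series, gave the MIC against staphylococci and pasteurellae; the gram-negative enteric strain was tested by conventional agar dilution instead.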

Streptococcus Group 9960 = experiment: MIC, standard agar-dilution assay (Table V); format: cell-based; conditions: GROUP9960
Experimental: as §2

[16] = system: Klebsiella pneumoniae X26; experiment: MIC, standard agar-dilution assay (Table V); format: cell-based; conditions: Klebsiella pneumoniae, X26
Experimental: as §2

[17] = system: Staphylococcus aureus S13E; experiment: MIC, standard agar-dilution assay (Table V); format: cell-based; conditions: Staphylococcus aureus, S13E
Experimental: as §2

[18] = system: Staphylococcus aureus X400; experiment: MIC, standard agar-dilution assay (Table V); format: cell-based; conditions: Staphylococcus aureus, X400
Experimental: as §2

[19] = system: Staphylococcus aureus X1.1; experiment: MIC, standard agar-dilution assay (Table V); format: cell-based; conditions: Staphylococcus aureus, X1.1
Experimental: as §2

[20] = system: Streptococcus Group D X66; experiment: MIC, standard agar-dilution assay (Table V); format: cell-based; conditions: Streptococcus Group D X66; agar dilution; read-out: MIC
Experimental: as §2

[21] = system: Staphylococcus epidermidis EPI2; experiment: MIC, standard agar-dilution assay (Table V); format: cell-based; conditions: Staphylococcus epidermidis, EPI2
Experimental: as §2

[22] = system: Klebsiella pneumoniae KAE; experiment: MIC, standard agar-dilution assay (Table V); format: cell-based; conditions: Klebsiella pneumoniae
Method in brief: as §3

Shigella sonnei N9 = experiment: MIC, standard agar-dilution assay (Table V); format: cell-based
Method in brief: as §3

Escherichia coli N10 = experiment: MIC, standard agar-dilution assay (Table V); format: cell-based; conditions: Escherichia coli, N10
Method in brief: as §3

[23] = system: Staphylococcus epidermidis EPI1; experiment: MIC, standard agar-dilution assay (Table V); format: cell-based; conditions: Staphylococcus epidermidis, EPI1
Experimental: as §2

For `CCC1OC(=O)CC(O)C(C)C(OC2OC(C)C(O)C(N(C)C)C2O)C(CC=O)CC(C)C(=O)C=CC(C)=CC1CSC(C)=O` (stereo not shown) [Compound 7, 23-Deoxy-23-(acetyl)thio-OMT], the MIC [1] was 0.25 µg/mL (≈ 0.381 µM), the MIC [2] was 2 µg/mL (≈ 3.05 µM) and the MIC [3] was 1 µg/mL (≈ 1.52 µM). For the same compound, the ED50 ([4]; C203, po, read-out: ED50, Oral) was > 100 mg/kg, the ED50 ([4]; C203, sc, mice, subcutaneous, doses given 1 and 4 hours postinfection, read-out: ED50, Subcutaneous) was 21.4 mg/kg and the MIC [5] was > 128 µg/mL. The MIC [6] was 32 µg/mL (≈ 48.8 µM), the MIC (Proteus morganii PR15) was > 128 µg/mL and the MIC [7] was > 128 µg/mL. For the same compound, the MIC [8] was > 128 µg/mL, the MIC (Serratia marcescens X99) was > 128 µg/mL and the MIC [9] was > 128 µg/mL. For the same compound, the MIC (Serratia marcescens SE3) was > 128 µg/mL, the MIC (Enterobacter cloacae EB5) was > 128 µg/mL and the MIC (Salmonella typhi 1335) was > 128 µg/mL. The MIC (Proteus inconstans PR33) was > 128 µg/mL, the MIC [10] was > 128 µg/mL and the MIC (Proteus rettgeri C24) was 64 µg/mL (≈ 97.6 µM). The MIC [11] was > 128 µg/mL, the MIC [12] was > 128 µg/mL and the MIC (Proteus rettgeri PR7) was > 128 µg/mL. For the same compound, the MIC (Mycoplasma synoviae) was ≤ 0.05 µg/mL, the MIC [13] was 3.12 µg/mL (≈ 4.76 µM) and the MIC [14] was 0.06 µg/mL (≈ 0.0915 µM). It also gave an MIC [15] of 0.25 µg/mL (≈ 0.381 µM), an MIC (Escherichia coli EC14) of 64 µg/mL (≈ 97.6 µM) and an MIC (Streptococcus Group 9960) of 0.25 µg/mL (≈ 0.381 µM). It also gave an MIC [16] of 4 µg/mL (≈ 6.1 µM), an MIC [17] of 0.125 µg/mL (≈ 0.191 µM) and an MIC [18] of 0.25 µg/mL (≈ 0.381 µM). The MIC [19] was 0.25 µg/mL (≈ 0.381 µM), the MIC [20] was 0.5 µg/mL (≈ 0.762 µM) and the MIC [21] was 0.125 µg/mL (≈ 0.191 µM). The MIC [22] was > 128 µg/mL, the MIC (Shigella sonnei N9) was 64 µg/mL (≈ 97.6 µM) and the MIC (Escherichia coli N10) was 64 µg/mL (≈ 97.6 µM). For the same compound, the MIC [23] was 0.125 µg/mL (≈ 0.191 µM).
